For this test, the target named is sepiapterin reductase (hSPR) (Homo sapiens, UniProt P35270). The experiment in a line: cell-free TR-FRET binding assay.

These results are taken from paper PMC4485422 (Neuron, 2015).

Molecules are shown by their SMILES.

sepiapterin reductase (hSPR), sequence (P35270 whole entry): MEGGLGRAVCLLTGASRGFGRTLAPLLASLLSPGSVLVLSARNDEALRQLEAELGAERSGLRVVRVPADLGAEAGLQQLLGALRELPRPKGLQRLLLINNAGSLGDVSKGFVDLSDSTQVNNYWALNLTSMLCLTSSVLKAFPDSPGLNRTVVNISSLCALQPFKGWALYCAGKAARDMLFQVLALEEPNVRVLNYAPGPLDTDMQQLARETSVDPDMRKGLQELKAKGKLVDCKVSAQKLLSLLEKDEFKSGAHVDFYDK

As to `CC(=O)NCCc1c[nH]c2ccc(O)cc12` [NAS, N-acetylserotonin], the half-maximal inhibitory concentration (IC50) is 1900 nM.
